# Test results taken from patent US20060236430A1, “Methods and compositions for producing male sterile plants” (priority 2003, published 2006).
# Entries after “also recorded” stand apart in the source; their conditions may differ.
# What was measured:
# [1] = test system: A. thaliana opr3 mutant deficient in JA biosynthesis; experiment: Restoring the male sterile phenotype of the opr3 mutant by exogenous application to the inflorescence; assay type: in vivo, Arabidopsis thaliana; conditions: data not shown
# [2] = test system: transgenic Nicotiana tabacum plants (line 7) expressing AtST2a; experiment: Normalization experiment: restoring normal anther development in male sterile transgenic tobacco expressing AtST2a; assay type: in vivo; conditions: for restoration of the male sterile phenotype by exogenous application: transgenic tobacco overexpressing AtST2a, concentration not given
# Method: The apex of T2 plants of line 7 was soaked daily in a solution containing either: 0.05% Tween20 in water (control), 0.05% Tween20 in water containing 50 μM MeJA or 0.05% Tween20 in water containing 100 μM 12-OHJA. The treatments were started approximately 7 days before the appearance of the first flower buds and lasted a total of 14 days. A minimum of 5 plants for each treatment were analyzed in this study.
# In order to restore the phenotype, the apex of transgenic plants were soaked daily for 2 minutes in a solution containing 100 μM 12-OHJA dissolved in aqueous 0.05% TWEEN20. The application was started approximately 7 days prior to the appearance of the first flower bud and was continued for 7 days after the first flower appeared.
# [3] = molecular target: T1, hydroxyjasmonic acid sulfotransferase encoded by the AtST2a gene (Arabidopsis thaliana, UniProt Q8L5A7); experiment: Substrate specificity and kinetics of the AtST2a hydroxyjasmonic acid sulfotransferase; assay type: biochemical; conditions: structurally related compounds
# T1 sequence (Q8L5A7 1-359): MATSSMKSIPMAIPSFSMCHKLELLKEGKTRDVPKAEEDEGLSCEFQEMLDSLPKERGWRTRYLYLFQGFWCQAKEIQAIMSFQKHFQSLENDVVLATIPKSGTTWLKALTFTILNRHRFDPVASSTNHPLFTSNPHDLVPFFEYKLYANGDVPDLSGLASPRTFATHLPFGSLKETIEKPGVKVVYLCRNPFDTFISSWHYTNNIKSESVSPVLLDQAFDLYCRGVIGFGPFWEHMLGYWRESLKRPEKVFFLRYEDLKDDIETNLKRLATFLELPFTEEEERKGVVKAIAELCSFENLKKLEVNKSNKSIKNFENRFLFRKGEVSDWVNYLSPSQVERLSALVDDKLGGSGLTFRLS
# Source text: (§1) SEQ ID NO 1 (FIG. 6; GenBank®: accession number NM_120783) corresponds to the gene AtST2a in Arabidopsis thaliana. SEQ ID NO 3 (FIG. 7) is an amino acid sequence deduced from SEQ ID NO 1. This amino acid sequence is of public domain and can be retrieved from GenBank®, accession number NM_120783. The AtST2a gene from Arabidopsis thaliana encodes a sulfotransferase that sulfonates 12-OHJA and 11-OHJA with high specificity.
# [4] = substrate: O=C(O)CC1CCC(=O)C1CC=CCCO; experiment: as above; assay type: biochemical, Arabidopsis thaliana; conditions: other: as substrate of the sulfotransferase; pH 7.5
# Source text: as §1
# [5] = substrate: CC(O)C=CCC1C(=O)CCC1CC(=O)O; experiment: as above; assay type: biochemical, Arabidopsis thaliana; conditions: other: as substrate of the sulfotransferase; pH 7.5
# Source text: as §1
molecule,measurement,setting,value
"O=C(O)CC1CCC(=O)C1CC=CCCO (stereo not drawn) [12-OHJA, 3-Oxo-2-(5-hydroxy-2-pentenyl)-cyclopentane-1-acetic acid]",restoration of the male sterile phenotype,[1],restore the male sterile phenotype
same,restoration of normal anther development,"[2]; 100 μM in aqueous 0.05% TWEEN20, apex of line 7 soaked daily for 2 minutes, 14 days",restoration of the mutant phenotype; also recorded: restored normal anther development
same,production of viable pollen,[2]; apex of transgenic plants treated for 14 days (FIG. 5),production of viable pollen
same,restoration of the male sterile phenotype by exogenous application,[2],could be restored
"CC/C=C\C[C@H]1C(=O)CC[C@@H]1CC(=O)O [JA, jasmonic acid]",restoration of the male sterile phenotype by exogenous application,[2],could be restored
CCCCC/C=C\C/C=C\C/C=C\C/C=C\CCCCO [arachidonyl alcohol],acceptance as substrate by the enzyme,[3],did not accept
CC/C=C/CC1C(O)CCC1CC(=O)O (stereo not drawn) [cucurbic acid],acceptance as substrate by the enzyme,[3],did not accept
hydroxyjasmonic acid sulfotransferase encoded by the AtST2a gene (Arabidopsis thaliana) (protein) MATSSMKSIPMAIPSFSMCHKLELLKEGKTRDVPKAEEDEGLSCEFQEMLDSLPKERGWRTRYLYLFQGFWCQAKEIQAIMSFQKHFQSLENDVVLATIPKSGTTWLKALTFTILNRHRFDPVASSTNHPLFTSNPHDLVPFFEYKLYANGDVPDLSGLASPRTFATHLPFGSLKETIEKPGVKVVYLCRNPFDTFISSWHYTNNIKSESVSPVLLDQAFDLYCRGVIGFGPFWEHMLGYWRESLKRPEKVFFLRYEDLKDDIETNLKRLATFLELPFTEEEERKGVVKAIAELCSFENLKKLEVNKSNKSIKNFENRFLFRKGEVSDWVNYLSPSQVERLSALVDDKLGGSGLTFRLS,Km,[4],11 µM
same,Km,[5],60 µM
